Patent publication US6346542B1, “Pesticidal composition comprising enantiomeric form of fipronil” (priority 1999, dated 2002)

Columns and labels:
[1] = tested on: dogs; test: Emesis after oral administration; type: in vivo, dog; settings: for emetic activity on oral administration: oral administration to animals, dose not stated; for dogs showing emesis: 20 mg/kg oral capsule, within 5 hours after administration
Procedure: Another unexpected substantial advantage is that the (S) enantiomer provides a substantial reduction in emesis when administered to an animal orally. By the term “emesis” is meant vomiting. Generally, an emetic substance elicits emesis in less than 24 hours after administration, usually less than 8 hours, more usually less than 2 hours.

[2] = tested on: dogs; settings: 10 mg/kg in dogs
[3] = tested on: cat fleas (Ctenocephalides felis); test: Oral efficacy against cat fleas on infested dogs; type: in vivo
[4] = tested on: brown dog ticks (Rhipicephalus sanguineus); test: Oral efficacy against brown dog ticks on infested dogs; settings: for ticks remaining: 23 days after administration

Row | Compound | emetic activity on oral administration [1] | per cent (%) mortality of the arthropods, Flea ([3]; 1 mg/kg oral, 1 DAT) [%] | per cent (%) mortality of the arthropods, Flea ([3]; 1 mg/kg oral, 9 DAT) [%] | per cent (%) mortality of the arthropods, Flea ([3]; 1 mg/kg oral, 16 DAT) [%] | per cent (%) mortality of the arthropods, Flea ([3]; 1 mg/kg oral, 23 DAT) [%] | per cent (%) mortality of the arthropods, Flea ([3]; 3 mg/kg oral, 1 DAT) [%] | per cent (%) mortality of the arthropods, Flea ([3]; 3 mg/kg oral, 9 DAT) [%] | per cent (%) mortality of the arthropods, Flea ([3]; 3 mg/kg oral, 16 DAT) [%] | per cent (%) mortality of the arthropods, Flea ([3]; 3 mg/kg oral, 23 DAT) [%] | per cent (%) mortality of the arthropods, Flea ([3]; 10 mg/kg oral, 1 DAT) [%] | per cent (%) mortality of the arthropods, Flea ([3]; 10 mg/kg oral, 9 DAT) [%] | per cent (%) mortality of the arthropods, Flea ([3]; 10 mg/kg oral, 16 DAT) [%] | per cent (%) mortality of the arthropods, Flea ([3]; 10 mg/kg oral, 23 DAT) [%] | per cent (%) mortality of the arthropods, Flea ([3]; 20 mg/kg oral capsule, 1 DAT) [%] | per cent (%) mortality of the arthropods, Flea ([3]; 20 mg/kg oral capsule, 9 DAT) [%] | per cent (%) mortality of the arthropods, Flea ([3]; 20 mg/kg oral capsule, 16 DAT) [%] | per cent (%) mortality of the arthropods, Flea ([3]; 20 mg/kg oral capsule, 23 DAT) [%] | per cent (%) mortality of the arthropods, Flea ([3]; 20 mg/kg oral capsule, 31 DAT) [%] | dogs showing emesis [1] [%] | per cent (%) mortality of the arthropods, Tick ([4]; 1 mg/kg oral, 1 DAT) [%] | also measured
1 | N#Cc1nn(-c2c(Cl)cc(C(F)(F)F)cc2Cl)c(N)c1[S+]([O-])C(F)(F)F (racemic) [fipronil, 5-amino-3-cyano-1-(2,6-dichloro-4-trifluoromethylphenyl)-4-trifluoromethylsulfinylpyrazole] | causes emesis |  |  |  |  |  |  |  |  |  |  |  |  |  |  |  |  |  |  |  | 
2 | CC(=O)Nc1c([S@@+]([O-])C(F)(F)F)c(C#N)nn1-c1c(Cl)cc(C(F)(F)F)cc1Cl (single isomer, unassigned) [5-acetylamino (R) enantiomer] |  |  |  |  |  |  |  |  |  |  |  |  |  |  |  |  |  |  |  |  | mortality [2]: 33%
3 | N#Cc1nn(-c2c(Cl)cc(C(F)(F)F)cc2Cl)c(N)c1[S@+]([O-])C(F)(F)F [Compound B, (S)-5-amino-3-cyano-1-(2,6-dichloro-4-trifluoromethylphenyl)-4-trifluoromethylsulfinylpyrazole] | lower emetic activity | 100 | 100 | 90 | 79 | 100 | 98 | 67 | 50 | 100 | 99 | 87 | 83 | 100 | 96 | 86 | 88 | 84 | 50 | 100 | symptoms of emesis ([1]; oral, dogs, at any rate (1, 3, 10 mg/kg)): substantially no symptoms of emesis; per cent (%) mortality of the arthropods, Tick ([4]; 1 mg/kg oral, 9 DAT): 100%; per cent (%) mortality of the arthropods, Tick ([4]; 1 mg/kg oral, 16 DAT): 87%; per cent (%) mortality of the arthropods, Tick ([4]; 1 mg/kg oral, 23 DAT): 85%; per cent (%) mortality of the arthropods, Tick ([4]; 3 mg/kg oral, 1 DAT): 98%; per cent (%) mortality of the arthropods, Tick ([4]; 3 mg/kg oral, 9 DAT): 99%; per cent (%) mortality of the arthropods, Tick ([4]; 3 mg/kg oral, 16 DAT): 75%; per cent (%) mortality of the arthropods, Tick ([4]; 3 mg/kg oral, 23 DAT): 63%; per cent (%) mortality of the arthropods, Tick ([4]; 10 mg/kg oral, 1 DAT): 99%; per cent (%) mortality of the arthropods, Tick ([4]; 10 mg/kg oral, 9 DAT): 100%; per cent (%) mortality of the arthropods, Tick ([4]; 10 mg/kg oral, 16 DAT): 85%; per cent (%) mortality of the arthropods, Tick (effectiveness) ([4]; 10 mg/kg oral, 23 DAT): 85%; ticks remaining ([4]; 10 mg/kg oral): 15%; per cent (%) mortality of the arthropods, Tick ([4]; 20 mg/kg oral capsule, 1 DAT): 99%; per cent (%) mortality of the arthropods, Tick ([4]; 20 mg/kg oral capsule, 9 DAT): 97%; per cent (%) mortality of the arthropods, Tick ([4]; 20 mg/kg oral capsule, 16 DAT): 87%; per cent (%) mortality of the arthropods, Tick ([4]; 20 mg/kg oral capsule, 23 DAT): 86%; per cent (%) mortality of the arthropods, Tick ([4]; 20 mg/kg oral capsule, 31 DAT): 92%
4 | N#Cc1nn(-c2c(Cl)cc(C(F)(F)F)cc2Cl)c(N)c1[S@@+]([O-])C(F)(F)F [Compound C, (R)-5-amino-3-cyano-1-(2,6-dichloro-4-trifluoromethylphenyl)-4-trifluoromethylsulfinylpyrazole] |  | 100 | 100 | 76 | 72 | 100 | 78 | 72 | 64 | 100 | 95 | 72 | 86 | 100 | 86 | 69 | 67 | 69 | 90 | 100 | animals showing emesis symptoms ([1]; 3 mg/kg oral, dogs, after 2 hours): 20%; animals showing emesis symptoms ([1]; 10 mg/kg oral, dogs, after 1 hour): 40%; animals showing emesis symptoms ([1]; 10 mg/kg oral, dogs, after 3 hours): 20%; per cent (%) mortality of the arthropods, Tick ([4]; 1 mg/kg oral, 9 DAT): 100%; per cent (%) mortality of the arthropods, Tick ([4]; 1 mg/kg oral, 16 DAT): 66%; per cent (%) mortality of the arthropods, Tick ([4]; 1 mg/kg oral, 23 DAT): 78%; per cent (%) mortality of the arthropods, Tick ([4]; 3 mg/kg oral, 1 DAT): 93%; per cent (%) mortality of the arthropods, Tick ([4]; 3 mg/kg oral, 9 DAT): 89%; per cent (%) mortality of the arthropods, Tick ([4]; 3 mg/kg oral, 16 DAT): 71%; per cent (%) mortality of the arthropods, Tick ([4]; 3 mg/kg oral, 23 DAT): 65%; per cent (%) mortality of the arthropods, Tick ([4]; 10 mg/kg oral, 1 DAT): 97%; per cent (%) mortality of the arthropods, Tick ([4]; 10 mg/kg oral, 9 DAT): 97%; per cent (%) mortality of the arthropods, Tick ([4]; 10 mg/kg oral, 16 DAT): 71%; per cent (%) mortality of the arthropods, Tick (effectiveness) ([4]; 10 mg/kg oral, 23 DAT): 71%; ticks remaining ([4]; 10 mg/kg oral): 29%; per cent (%) mortality of the arthropods, Tick ([4]; 20 mg/kg oral capsule, 1 DAT): 97%; per cent (%) mortality of the arthropods, Tick ([4]; 20 mg/kg oral capsule, 9 DAT): 96%; per cent (%) mortality of the arthropods, Tick ([4]; 20 mg/kg oral capsule, 16 DAT): 85%; per cent (%) mortality of the arthropods, Tick ([4]; 20 mg/kg oral capsule, 23 DAT): 77%; per cent (%) mortality of the arthropods, Tick ([4]; 20 mg/kg oral capsule, 31 DAT): 81%
